Experimental data published in patent US20240358692A1, “TREATMENT OF SCLERODERMA” (Aisa Pharma, Inc., priority 2023, published 2024).

What was measured:
[1] = cited from earlier work
[2] = cilnidipine given orally; cited from earlier work
participants with SSc-RP = test: Average daily Raynaud's Condition Score (RCS); assay type: in vivo, human; set-up: key to Average Daily RCS, Mean / Average Daily RCS, Median / Average Daily RCS Change from Baseline, Mean / Average Daily RCS Change from Baseline, Median: RCS rated on a 0-10 cm VAS scale; conditions: ITT Population - Part A; for Average Daily RCS, Mean / Average Daily RCS, Median: dosing period
From the text: The RCS is based on how much difficulty participants had with Raynaud's today, how many attacks the participant had, and how long they lasted. In addition participants were and will be asked to consider how much pain, numbness, or other symptoms the Raynaud's caused in fingers (including painful sores), and how much the Raynaud's along affected the use of hand today (VAS 0-10 cm scale).
The absolute change in average daily RCS from baseline to the end of each dosing period was and will be a secondary outcome variable. The sponsor-developed participant-informed diary has been and will be used to record data. The average daily RCS is defined as the total RCS divided by the number of days with available diary data of each dosing period. Total RCS during screening period divided by the number of days with available data will be used as baseline for the analysis of all periods. If there are multiple daily RCS scores, the latest daily RCS will be used. The variable will be calculated similar to frequency data as before.

[3] = Excluding Outliers, dose cilnidipine 10 mg, tadalafil 5 mg, alone or combined as labelled
[4] = Excluding Outliers, dose cilnidipine 20 mg, tadalafil 5 mg, alone or combined as labelled
[5] = Excluding Outliers, pooled arms Cilnidipine 10 mg and Cilnidipine 10 mg + Tadalafil 5 mg
[6] = Excluding Outliers, pooled arms Cilnidipine 20 mg and Cilnidipine 20 mg + Tadalafil 5 mg
[7] = Excluding Outliers, pooled cilnidipine 10 mg and 20 mg arms (combination: + tadalafil 5 mg)
[8] = dose cilnidipine 10 mg, tadalafil 5 mg, alone or combined as labelled
[9] = dose cilnidipine 20 mg, tadalafil 5 mg, alone or combined as labelled
[10] = pooled arms Cilnidipine 10 mg and Cilnidipine 10 mg + Tadalafil 5 mg
[11] = pooled arms Cilnidipine 20 mg and Cilnidipine 20 mg + Tadalafil 5 mg
[12] = pooled cilnidipine 10 mg and 20 mg arms (combination: + tadalafil 5 mg)

COCCOC(=O)C1=C(C)NC(C)=C(C(=O)OC/C=C/c2ccccc2)C1c1cccc([N+](=O)[O-])c1 (stereo not drawn) [Cilnidipine]
CL/F ([1]; 10 mg Cilnidipine, Healthy Volunteers, single oral dose, mean): 304.7 L/h | time to achieve maximal plasma concentrations (Tmax) ([1]; oral dosing): ≤ 2 h | protein bound [2]: 98% | Average Daily RCS Change from Baseline, Mean (participants with SSc-RP; [3]): −0.98 | Average Daily RCS Change from Baseline, Median (participants with SSc-RP; [3]): −0.98 | Average Daily RCS Percent Change from Baseline, Mean (participants with SSc-RP; [3]): −35.74% | Average Daily RCS Percent Change from Baseline, Median (participants with SSc-RP; [3]): −35.74% | Average Daily RCS Change from Baseline, Mean (participants with SSc-RP; [4]): −0.45 | Average Daily RCS Change from Baseline, Median (participants with SSc-RP; [4]): −0.45 | Average Daily RCS Percent Change from Baseline, Mean (participants with SSc-RP; [4]): −17.16% | Average Daily RCS Percent Change from Baseline, Median (participants with SSc-RP; [4]): −17.16% | Average Daily RCS, Mean (participants with SSc-RP; [3]): 1.76 | Average Daily RCS, Median (participants with SSc-RP; [3]): 1.76 | Average Daily RCS, Mean (participants with SSc-RP; [4]): 2.90 | Average Daily RCS, Median (participants with SSc-RP; [4]): 2.90 | Average Daily RCS, Mean (participants with SSc-RP; [5]): 2.43 | Average Daily RCS, Median (participants with SSc-RP; [5]): 1.76 | Average Daily RCS, Mean (participants with SSc-RP; [6]): 3.60 | Average Daily RCS, Median (participants with SSc-RP; [6]): 3.82 | Average Daily RCS, Mean (participants with SSc-RP; [7]): 2.52 | Average Daily RCS, Median (participants with SSc-RP; [7]): 1.76 | Average Daily RCS Change from Baseline, Mean (participants with SSc-RP; [5]): −1.64 | Average Daily RCS Change from Baseline, Median (participants with SSc-RP; [5]): −1.51 | Average Daily RCS Percent Change from Baseline, Mean (participants with SSc-RP; [5]): −41.77% | Average Daily RCS Percent Change from Baseline, Median (participants with SSc-RP; [5]): −36.47% | Average Daily RCS Change from Baseline, Mean (participants with SSc-RP; [6]): −1.08 | Average Daily RCS Change from Baseline, Median (participants with SSc-RP; [6]): −0.59 | Average Daily RCS Percent Change from Baseline, Mean (participants with SSc-RP; [6]): −18.93% | Average Daily RCS Percent Change from Baseline, Median (participants with SSc-RP; [6]): −20.71% | Average Daily RCS Change from Baseline, Mean (participants with SSc-RP; [7]): −0.63 | Average Daily RCS Change from Baseline, Median (participants with SSc-RP; [7]): −0.98 | Average Daily RCS Percent Change from Baseline, Mean (participants with SSc-RP; [7]): −23.35% | Average Daily RCS Percent Change from Baseline, Median (participants with SSc-RP; [7]): −35.74% | Average Daily RCS Change from Baseline, Mean (participants with SSc-RP; [8]): −0.98 | Average Daily RCS Change from Baseline, Median (participants with SSc-RP; [8]): −0.98 | Average Daily RCS Percent Change from Baseline, Mean (participants with SSc-RP; [8]): −35.74% | Average Daily RCS Percent Change from Baseline, Median (participants with SSc-RP; [8]): −35.74% | Average Daily RCS Change from Baseline, Mean (participants with SSc-RP; [9]): −0.45 | Average Daily RCS Change from Baseline, Median (participants with SSc-RP; [9]): −0.45 | Average Daily RCS Percent Change from Baseline, Mean (participants with SSc-RP; [9]): −17.16% | Average Daily RCS Percent Change from Baseline, Median (participants with SSc-RP; [9]): −17.16% | Average Daily RCS, Mean (participants with SSc-RP; [8]): 1.76 | Average Daily RCS, Median (participants with SSc-RP; [8]): 1.76 | Average Daily RCS, Mean (participants with SSc-RP; [9]): 2.90 | Average Daily RCS, Median (participants with SSc-RP; [9]): 2.90 | Average Daily RCS, Mean (participants with SSc-RP; [10]): 2.43 | Average Daily RCS, Median (participants with SSc-RP; [10]): 1.76 | Average Daily RCS, Mean (participants with SSc-RP; [11]): 3.60 | Average Daily RCS, Median (participants with SSc-RP; [11]): 3.82 | Average Daily RCS, Mean (participants with SSc-RP; [12]): 2.52 | Average Daily RCS, Median (participants with SSc-RP; [12]): 1.76 | Average Daily RCS Change from Baseline, Mean (participants with SSc-RP; [10]): −1.64 | Average Daily RCS Change from Baseline, Median (participants with SSc-RP; [10]): −1.51 | Average Daily RCS Percent Change from Baseline, Mean (participants with SSc-RP; [10]): −41.77% | Average Daily RCS Percent Change from Baseline, Median (participants with SSc-RP; [10]): −36.47% | Average Daily RCS Change from Baseline, Mean (participants with SSc-RP; [11]): −1.08 | Average Daily RCS Change from Baseline, Median (participants with SSc-RP; [11]): −0.59 | Average Daily RCS Percent Change from Baseline, Mean (participants with SSc-RP; [11]): −18.93% | Average Daily RCS Percent Change from Baseline, Median (participants with SSc-RP; [11]): −20.71% | Average Daily RCS Change from Baseline, Mean (participants with SSc-RP; [12]): −0.63 | Average Daily RCS Change from Baseline, Median (participants with SSc-RP; [12]): −0.98 | Average Daily RCS Percent Change from Baseline, Mean (participants with SSc-RP; [12]): −23.35% | Average Daily RCS Percent Change from Baseline, Median (participants with SSc-RP; [12]): −35.74%
